One compound from patent US20160075689A1, “POLYMERASE, ENDONUCLEASE, AND HELICASE INHIBITORS AND METHODS OF USING THEREOF” (THE BOARD OF TRUSTEES OF THE UNIVERSITY OF ARKANSAS, priority 2013, published 2016) can be followed below.

One assay addresses T1, DNase I (Homo sapiens, UniProt P24855).
T1 sequence (P24855 23-282): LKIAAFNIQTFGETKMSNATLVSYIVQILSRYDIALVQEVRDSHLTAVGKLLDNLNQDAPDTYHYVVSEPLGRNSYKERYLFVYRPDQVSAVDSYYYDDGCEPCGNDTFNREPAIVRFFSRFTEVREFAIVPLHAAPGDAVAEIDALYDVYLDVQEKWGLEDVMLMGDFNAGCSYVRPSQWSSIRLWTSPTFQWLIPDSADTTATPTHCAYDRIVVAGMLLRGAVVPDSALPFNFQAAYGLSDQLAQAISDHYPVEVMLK
The assay can be described thus: Endonuclease screening assay, specificity. The assay is classed as biochemical. An excerpt:
(§1) Specificity of a potential inhibitor is important for any in vitro or in vivo application, and generally defines the usefulness of an inhibitor. To determine specificity of the inhibitors for the two EndoG inhibitors, PNR-3-80 and PNR-3-82, their IC50 values for EndoG were compared using the screening assay with the IC50 values for two other endonucleases, DNase I and DNAse II (FIG. 11). These endonucleases were chosen because they represent the majority of endonuclease activity in most mammalian cells and because of their availability as pure enzymes.
(§2) A reaction mixture was prepared in each well of a white 96-well plate (Costar, Corning, N.Y.) as follows: 0.25 μM Cy5.5-labeled oligonucleotide (described in US provisional patent filed Oct. 19, 2012, Ser. No. 61/716,097) 0.3 mM MgCl2, 10 mM Tris-HCl, pH 7.4, 1 μl DMSO containing 5 or 50 ng of test compound, and nuclease-free water for a total reaction volume of 100 μl. The background (negative control) and uninhibited EndoG samples were measured using DMSO only, or DMSO containing recombinant EndoG (4 μg/ml), respectively. After addition of EndoG, fluorescence intensity was kinetically measured on a Bio-Tek Synergy 4.0 plate reader at 37° C. and mean velocity (mRFU/min) within 20 min was automatically calculated by the plate reader. The background was subtracted prior to the calculation of EndoG activity (%). The percent of EndoG activity was calculated from the mean velocity of a compound divided by the mean velocity of DMSO with recombinant EndoG, and the obtained value multiplied by 100.

Another assay addresses T2, DNase II (Homo sapiens, UniProt O00115).
T2 sequence (O00115 19-360): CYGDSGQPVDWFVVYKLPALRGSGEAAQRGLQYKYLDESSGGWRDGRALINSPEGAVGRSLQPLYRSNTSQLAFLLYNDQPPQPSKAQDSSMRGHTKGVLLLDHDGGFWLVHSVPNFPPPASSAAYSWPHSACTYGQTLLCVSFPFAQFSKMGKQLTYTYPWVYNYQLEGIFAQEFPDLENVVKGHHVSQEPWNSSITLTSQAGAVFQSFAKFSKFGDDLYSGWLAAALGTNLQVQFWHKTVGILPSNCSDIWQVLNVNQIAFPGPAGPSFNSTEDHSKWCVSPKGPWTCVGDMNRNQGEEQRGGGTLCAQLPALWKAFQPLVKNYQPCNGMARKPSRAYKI
Nature of the assay: Endonuclease screening assay, specificity. Type of assay: biochemical.
Description: as §1, §2

The target of a further assay is NS3-4A (Hepatitis C virus genotype 1b, UniProt P26663). The assay can be described thus: NS3 protease activity assay. Type of assay: biochemical, HCV. The following applies: 25 μM compound, 50 nM NS3-4A, 100 nM substrate. Here is the method:
The protease activity of NS3 was analyzed in the presence of 25 μM ITBA-3-79, ITBA-3-82 or ITBA-3-85 by using 50 nM NS3-4A and 100 nM substrate (Ac-Asp-Glu-Asp-EDANS-Glu-Glu-Abu-L-Lactoyl-Ser-Lys DABCYL-NH2). The emission spectra of EDANS and the absorption spectra of DABCYL overlap making the peptide internally quenched. Cleaving of the substrate by the protease results in an increase in fluorescence that can be measured (λex−355 nm; λem, −500 nm). Telapravir (10 μM) was used as a positive control.

The target of another assay is T3, HCV NS3 helicase (Hepatitis C virus genotype 1b, UniProt P26663).
T3 construct: analyze the helicase activity of NS3 helicase in the presence of the compounds; made in house
The assay can be described thus: Fluorescence-based helicase assay. The following applies: IC50 for inhibition of NS3 helicase, mean ± standard deviation of three data sets. The assay is classed as biochemical. As for the experimental part:
A library of compounds was screened using a previously validated quantitative assay that measures helicase activity over time. The assay relies upon helicase-catalyzed displacement of a fluorescently-labeled oligonucleotide (FIG. 13A). The concentration of enzyme and compounds used was 250 nM and 20 μM respectively. The experiments were performed in triplicate. […] Three potential helicase inhibitors were identified using the fluorescence based assay. […] The inhibitor compounds identified in our screen were ITBA-3-79, ITBA-3-82 and ITBA-3-85 (FIG. 14A). […] The IC50 value for ITBA-3-79, ITBA-3-82 and ITBA-3-85-mediated inhibition of NS3 helicase ranged˜20 μM (FIG. 14C). The ATPase activity of NS3 (50 μM) was analyzed in the presence of ITBA-3-79, ITBA-3-82 and ITBA-3-85 using a coupled spectrophotometric assay (Raney and Benkovic 1995, (FIG. 15). The protease activity of NS3 was analyzed in the presence of ITBA-3-79, ITBA-3-82 and ITBA-3-85 by using 50 nM NS3-4A and 100 nM substrate (Ac-Asp-Glu-Asp-EDANS-Glu-Glu-Abu-L-Lactoyl-Ser-Lys DABCYL-NH2, FIG. 15. The NS3 helicase activity was analyzed in the presence of 25 μM ITBA-3-79, ITBA-3-82 and ITBA-3-85 (FIG. 16).
A fluorescence based quantitative assay that measures helicase activity over time was employed to screen the compounds. The concentration of enzyme and compounds used was 250 nM and 20 μM respectively. Helicase catalyzes the unwinding of a FAM-labeled dsDNA and the resulting increase in fluorescence is plotted (λex-485 nm; λem, −528 nm). The slope of the initial part of the plot was used to calculate the percentage helicase activity. […] The IC50 value for ITBA-3-79, ITBA-3-82 and ITBA-3-85-mediated inhibition of NS3 helicase was determined using the same assay.

Structures are written as SMILES. Several values for one entry are separate records, joined by “and”; a condition that tells them apart may be missing. Equal entries are not always repeated.

T3 sequence (P26663 1027-1657): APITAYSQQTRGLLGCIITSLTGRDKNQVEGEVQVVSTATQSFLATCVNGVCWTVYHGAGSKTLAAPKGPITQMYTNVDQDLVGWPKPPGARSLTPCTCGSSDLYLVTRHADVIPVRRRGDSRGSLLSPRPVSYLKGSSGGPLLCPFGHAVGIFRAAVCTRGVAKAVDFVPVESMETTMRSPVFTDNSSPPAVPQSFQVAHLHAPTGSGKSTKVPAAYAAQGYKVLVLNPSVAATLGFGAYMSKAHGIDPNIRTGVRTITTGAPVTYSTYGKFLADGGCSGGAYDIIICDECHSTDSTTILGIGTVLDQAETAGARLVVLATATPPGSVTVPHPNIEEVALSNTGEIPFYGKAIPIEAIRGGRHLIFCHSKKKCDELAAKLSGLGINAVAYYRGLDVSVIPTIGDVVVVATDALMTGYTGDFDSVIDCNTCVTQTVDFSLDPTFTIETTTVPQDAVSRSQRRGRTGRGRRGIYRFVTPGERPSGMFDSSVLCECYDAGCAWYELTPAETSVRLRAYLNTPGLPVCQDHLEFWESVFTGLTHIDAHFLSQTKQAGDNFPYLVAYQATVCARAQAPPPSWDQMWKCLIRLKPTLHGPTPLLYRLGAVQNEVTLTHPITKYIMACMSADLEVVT
Chain of NS3-4A (P26663 1027-1657): as above
Chain of NS3-4A (P26663 1658-1711): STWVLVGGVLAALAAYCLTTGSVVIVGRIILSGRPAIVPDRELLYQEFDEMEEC

Consider `COc1ccc2c(c1)c(C=C1C(=O)NC(=S)NC1=O)cn2C(=O)c1ccc2ccccc2c1` [PNR-3-82], for which the IC50 (in general, the concentration that inhibits the measured activity by half) on DNase I was 63.3 µM; against HCV NS3 helicase, ~20 µM and 21.4 µM. The “effect on DNase II activity” value at DNase II is “did not have any effect”. Further, on NS3-4A, the NS3 protease activity result was “do not block protease activity”.
